Laboratory results from patent US10954252B1, “Inhibitors of human immunodeficiency virus replication” (ViiV HEALTHCARE UK (NO.5) LIMITED, priority 2017, dated 2021).

Key:
[1] = Compound cytotoxicity, XTT-based colorimetric assay; assay type: cell-based; details: human, uninfected MT2 cells, Table 1, day 4, XTT
In short: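 CC50 from uninfected MT2 cells run under the antiviral-assay protocol without virus. Viability read on day 4 by XTT colorimetric assay.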

[2] = Stereoisomer interconversion on storage in MeOH at ambient condition; assay type: physicochemical; details: stored in MeOH at ambient condition
[3] = tested on: recombinant NL4-3 virus (nef section replaced with Renilla luciferase gene) in MT-2 cells; experiment: HIV cell culture assay (antiviral activity, luciferase readout); assay type: cell-based; details: Renilla, NL43, Table 1; MT-2 cells infected for 4-5 days with recombinant NL4-3 luciferase virus
In short: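 NL4-3 reporter virus carrying Renilla luciferase in place of part of nef, produced in 293T cells, was used to infect MT-2 cells for 4-5 days with serial compound dilutions. Luciferase activity was read with a live-cell substrate; EC50 derived from the median effect equation.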

SMILES | CC50 at 4 days [1] | conversion to another stereoisomer on storage [2] | EC50 [3]
Cn1nc(NS(C)(=O)=O)c2c(Cl)ccc(-n3c([C@H](Cc4cc(F)cc(F)c4)NC(=O)Cn4nc(C(F)F)c5c4C(F)(F)C4CC54)nc4nc(C(F)(F)F)ccc4c3=O)c21 (stereo in doubt) [Example 11.2, N—((S)-1-(3-(4-chloro-1-methyl-3-(methylsulfonamido)-1H-indazol-7-yl)-4-oxo-7-(trifluoromethyl)-3,4-dihydropyrido[2,3-d]pyrimidin-2-yl)-2-(3,5-difluorophenyl)ethyl)-2-((3bS,4aR)-3-(difluoromethyl)-5,5-difluoro-3b,4,4a,5-tetrahydro-1H-cyclopropa[3,4]cyclopenta[1,2-c]pyrazol-1-yl)acetamide] | > 10000 nM | converts slowly to one of the isomers in Example 11.1 | 51 nM
Cn1nc(NS(C)(=O)=O)c2c(Cl)ccc(-n3c([C@H](Cc4cc(F)cc(F)c4)NC(=O)Cn4nc(C(F)F)c5c4C(F)(F)C4CC54)nc4nc(Cl)ccc4c3=O)c21 (stereo in doubt) [Example 12.2, N—((S)-1-(7-chloro-3-(4-chloro-1-methyl-3-(methylsulfonamido)-1H-indazol-7-yl)-4-oxo-3,4-dihydropyrido[2,3-d]pyrimidin-2-yl)-2-(3,5-difluorophenyl)ethyl)-2-((3bS,4aR)-3-(difluoromethyl)-5,5-difluoro-3b,4,4a,5-tetrahydro-1H-cyclopropa[3,4]cyclopenta[1,2-c]pyrazol-1-yl)acetamide] | > 3300 nM | converts slowly to one of the stereoisomers in Example 12.1 | 42 nM
